Laboratory results as given in US11311522B1 (Cavion, Inc., priority 2018, dated 2022).

Experiment: PN001/Part I: safety and tolerability
Assay type: in vivo, human
Description: Safety was monitored throughout by adverse events, vital signs, and repeated clinical and laboratory evaluations. […] All adverse events were mild or moderate and severity and transient.

## CC(C)c1ccc(CC(=O)N[C@H](C)c2ccc(OCC(F)(F)F)cn2)cc1 [CX-8998]
1 mg
  Abnormal physical sensation: 0 n (%)
  At least 1 adverse event: 2 (33.3) n (%)
  Dizziness: 0 n (%)
  Drowsiness: 0 n (%)
  Elevated mood: 0 n (%)
  Euphoric mood: 0 n (%)
  Eye Disorders: 0 n (%)
  Fatigue: 0 n (%)
  Feeling abnormal: 0 n (%)
  Floating feeling: 0 n (%)
  Gastro-intestinal Disorders: 0 n (%)
  Hangover effect: 0 n (%)
  Headache: 2 (33.3) n (%)
  Indifference: 0 n (%)
  Injury, Poisoning and Procedural Complications: 0 n (%)
  Insomnia: 0 n (%)
  Intoxication: 0 n (%)
  Irritability: 0 n (%)
  Lethargy: 0 n (%)
  Nervous System Disorders: 2 (33.3) n (%)
  Paraesthesia: 0 n (%)
  Paraesthesia oral: 0 n (%)
  Paraesthesia tongue: 0 n (%)
  Psychiatric Disorders: 0 n (%)
  Racing thoughts: 0 n (%)
  Relaxed: 0 n (%)
  Sensory disturbance: 0 n (%)
  Vision blurred: 0 n (%)
  Visual disturbance: 0 n (%)
  Vivid dreams: 0 n (%)
1 mg fed
  Abnormal physical sensation: 0 n (%)
  At least 1 adverse event: 0 n (%)
  Dizziness: 0 n (%)
  Drowsiness: 0 n (%)
  Elevated mood: 0 n (%)
  Euphoric mood: 0 n (%)
  Eye Disorders: 0 n (%)
  Fatigue: 0 n (%)
  Feeling abnormal: 0 n (%)
  Floating feeling: 0 n (%)
  Gastro-intestinal Disorders: 0 n (%)
  Hangover effect: 0 n (%)
  Headache: 0 n (%)
  Indifference: 0 n (%)
  Injury, Poisoning and Procedural Complications: 0 n (%)
  Insomnia: 0 n (%)
  Intoxication: 0 n (%)
  Irritability: 0 n (%)
  Lethargy: 0 n (%)
  Nervous System Disorders: 0 n (%)
  Paraesthesia: 0 n (%)
  Paraesthesia oral: 0 n (%)
  Paraesthesia tongue: 0 n (%)
  Psychiatric Disorders: 0 n (%)
  Racing thoughts: 0 n (%)
  Relaxed: 0 n (%)
  Sensory disturbance: 0 n (%)
  Vision blurred: 0 n (%)
  Visual disturbance: 0 n (%)
  Vivid dreams: 0 n (%)
3 mg
  Abnormal physical sensation: 0 n (%)
  At least 1 adverse event: 3 (50.0) n (%)
  Dizziness: 0 n (%)
  Drowsiness: 0 n (%)
  Elevated mood: 0 n (%)
  Euphoric mood: 1 (16.7) n (%)
  Eye Disorders: 0 n (%)
  Fatigue: 0 n (%)
  Feeling abnormal: 0 n (%)
  Floating feeling: 0 n (%)
  Gastro-intestinal Disorders: 0 n (%)
  Hangover effect: 0 n (%)
  Headache: 0 n (%)
  Indifference: 0 n (%)
  Injury, Poisoning and Procedural Complications: 0 n (%)
  Insomnia: 0 n (%)
  Intoxication: 0 n (%)
  Irritability: 0 n (%)
  Lethargy: 0 n (%)
  Nervous System Disorders: 0 n (%)
  Paraesthesia: 0 n (%)
  Paraesthesia oral: 0 n (%)
  Paraesthesia tongue: 0 n (%)
  Psychiatric Disorders: 1 (16.7) n (%)
  Racing thoughts: 0 n (%)
  Relaxed: 0 n (%)
  Sensory disturbance: 0 n (%)
  Vision blurred: 0 n (%)
  Visual disturbance: 0 n (%)
  Vivid dreams: 0 n (%)
4 mg
  Abnormal physical sensation: 0 n (%)
  At least 1 adverse event: 1 (16.7) n (%)
  Dizziness: 0 n (%)
  Drowsiness: 0 n (%)
  Elevated mood: 0 n (%)
  Euphoric mood: 0 n (%)
  Eye Disorders: 1 (16.7) n (%)
  Fatigue: 0 n (%)
  Feeling abnormal: 1 (16.7) n (%)
  Floating feeling: 0 n (%)
  Gastro-intestinal Disorders: 0 n (%)
  Hangover effect: 0 n (%)
  Headache: 0 n (%)
  Indifference: 0 n (%)
  Injury, Poisoning and Procedural Complications: 0 n (%)
  Insomnia: 0 n (%)
  Intoxication: 0 n (%)
  Irritability: 0 n (%)
  Lethargy: 0 n (%)
  Nervous System Disorders: 0 n (%)
  Paraesthesia: 0 n (%)
  Paraesthesia oral: 0 n (%)
  Paraesthesia tongue: 0 n (%)
  Psychiatric Disorders: 0 n (%)
  Racing thoughts: 0 n (%)
  Relaxed: 0 n (%)
  Sensory disturbance: 0 n (%)
  Vision blurred: 0 n (%)
  Visual disturbance: 1 (16.7) n (%)
  Vivid dreams: 0 n (%)
8 mg
  Abnormal physical sensation: 0 n (%)
  At least 1 adverse event: 1 (16.7) n (%)
  Dizziness: 0 n (%)
  Drowsiness: 0 n (%)
  Elevated mood: 0 n (%)
  Euphoric mood: 0 n (%)
  Eye Disorders: 1 (16.7) n (%)
  Fatigue: 0 n (%)
  Feeling abnormal: 0 n (%)
  Floating feeling: 0 n (%)
  Gastro-intestinal Disorders: 1 (16.7) n (%)
  Hangover effect: 0 n (%)
  Headache: 0 n (%)
  Indifference: 0 n (%)
  Injury, Poisoning and Procedural Complications: 0 n (%)
  Insomnia: 0 n (%)
  Intoxication: 0 n (%)
  Irritability: 0 n (%)
  Lethargy: 0 n (%)
  Nervous System Disorders: 1 (16.7) n (%)
  Paraesthesia: 0 n (%)
  Paraesthesia oral: 1 (16.7) n (%)
  Paraesthesia tongue: 0 n (%)
  Psychiatric Disorders: 0 n (%)
  Racing thoughts: 0 n (%)
  Relaxed: 0 n (%)
  Sensory disturbance: 0 n (%)
  Vision blurred: 0 n (%)
  Visual disturbance: 1 (16.7) n (%)
  Vivid dreams: 0 n (%)
8 mg evening
  Abnormal physical sensation: 1 (16.7) n (%)
  At least 1 adverse event: 5 (83.3) n (%)
  Dizziness: 0 n (%)
  Drowsiness: 1 (16.7) n (%)
  Elevated mood: 2 n (%)
  Euphoric mood: 2 n (%)
  Eye Disorders: 1 (16.7) n (%)
  Fatigue: 0 n (%)
  Feeling abnormal: 1 (16.7) n (%)
  Floating feeling: 0 n (%)
  Gastro-intestinal Disorders: 0 n (%)
  Hangover effect: 0 n (%)
  Headache: 1 (16.7) n (%)
  Indifference: 0 n (%)
  Injury, Poisoning and Procedural Complications: 0 n (%)
  Insomnia: 0 n (%)
  Intoxication: 0 n (%)
  Irritability: 0 n (%)
  Lethargy: 0 n (%)
  Nervous System Disorders: 3 (50.0) n (%)
  Paraesthesia: 1 (16.7) n (%)
  Paraesthesia oral: 0 n (%)
  Paraesthesia tongue: 0 n (%)
  Psychiatric Disorders: 4 n (%)
  Racing thoughts: 1 (16.7) n (%)
  Relaxed: 0 n (%)
  Sensory disturbance: 0 n (%)
  Vision blurred: 1 (16.7) n (%)
  Visual disturbance: 0 n (%)
  Vivid dreams: 1 (16.7) n (%)
